By IC50 is commonly meant the concentration that gives 50% inhibition.

Some results are limits rather than exact numbers.

The assay addresses T1, GPR43 (Homo sapiens, UniProt O15552).
T1 construct: expressed in transfected cells
T1 sequence (O15552 1-330): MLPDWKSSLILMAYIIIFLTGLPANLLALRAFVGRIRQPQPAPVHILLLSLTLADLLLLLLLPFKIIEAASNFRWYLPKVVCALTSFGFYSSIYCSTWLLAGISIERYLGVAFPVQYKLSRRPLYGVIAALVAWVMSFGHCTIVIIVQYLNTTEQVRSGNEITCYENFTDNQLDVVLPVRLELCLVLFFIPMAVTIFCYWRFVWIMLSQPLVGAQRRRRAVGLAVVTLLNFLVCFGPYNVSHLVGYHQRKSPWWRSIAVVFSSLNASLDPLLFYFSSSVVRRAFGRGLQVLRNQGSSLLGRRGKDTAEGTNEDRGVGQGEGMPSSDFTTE
As to the kind of experiment: Calcium mobilization assay with probenecid. It is filed as cell-based. The note with it: GPR43 stably expressing cells; triggered with sodium acetate at EC80; 2.5 mM probenecid; read-out: GPR43 assay with probenicid IC50. As to the method:
The following assay can be used for determination of GPR43 activation. The assay measures intracellular calcium release induced by activation of GPR43. On day 1, GPR43 stably expressing cells were detached with mild trypsinization (Trypsin, 0.25% with EDTA 4Na, 5× diluted in PBS) centrifuged at 1000 rpm for 5 min and resuspended at 6.000 cells/25 […] medium (DMEM supplemented with 10% FBS, 10 μg/mL puromycin and 1% Pen/Strep). The cells were distributed in poly-D-lysine coated 384 well plates (black with clear bottom, 25 μL/well) and incubated overnight at 37° C. 10% CO2.
On day 2, 25 μL of a fluorescent Ca^2+ indicator (Calcium 4 assay; Molecular Devices) supplemented with 2.5 mM probenecid was added on top of the cells and incubated for 2 h at 37° C. Subsequently, compounds at increasing concentration (10 μL/well) were added to the plate and incubated for 15 min at 37° C.
To measure agonist activity of the compounds, compound was added to the well and the Ca^2+-flux was measured simultaneously to the […] of compound.
For `CC(C)C1(C(=O)N(CCCC(=O)NS(C)(=O)=O)Cc2cccc(Cl)c2)CCN1C(=O)c1csc2ccccc12` (stereo not shown) [Compound 233, 1-(benzo[b]thiophene-3-carbonyl)-N-(3-chlorobenzyl)-2-isopropyl-N-(4-(methylsulfonamido)-4-oxobutyl)azetidine-2-carboxamide], the 50% inhibitory concentration (IC50) fell in the range of 101 to 500 nM.
Then `CC1(C(=O)N(CCCC(=O)O)Cc2ccc(Cl)cc2)CCN1C(=O)Oc1ccccc1Br` (stereo not shown) [Compound 235, 4-(1-((2-bromophenoxy)carbonyl)-N-(4-chlorobenzyl)-2-methylazetidine-2-carboxamido)butanoic acid], with over 1000 nM.
`COc1cccc(CC2(C(=O)N(CCCC(=O)O)Cc3cccc(Cl)c3)CCN2C(=O)c2csc3ccccc23)c1` (stereo not shown) [Compound 221, 4-(1-(benzo[b]thiophene-3-carbonyl)-N-(3-chlorobenzyl)-2-(3-methoxybenzyl)azetidine-2-carboxamido)butanoic acid]: the half-inhibitory concentration (IC50) is 101 to 500 nM.
Then `CCOc1cc(CCN(Cc2ccc(Cl)cc2)C(=O)C2(C)CCN2C(=O)Cc2cc(C)cc(C)c2)nn1C` (stereo not shown) [Compound 118, 1-[2-(3,5-Dimethyl-phenyl)-acetyl]-2-methyl-azetidine-2-carboxylic acid (4-chloro-benzyl)-[2-(5-ethoxy-1-methyl-1H-pyrazol-3-yl)-ethyl]-amide], with over 1000 nM; and `CC1(C(=O)N(CCCC(=O)O)Cc2ccc3ccoc3c2)CCN1C(=O)Cc1coc2ccccc12` (stereo not shown) [Compound 164, 4-{[1-(2-Benzofuran-3-yl-acetyl)-2-methyl-azetidine-2-carbonyl]-benzofuran-6-ylmethyl-amino}-butyric acid], with 101 to 500 nM; and `CC[C@@]1(C(=O)N(CCCS(N)(=O)=O)[C@@H](C)c2ccc(Cl)cc2)CCN1C(=O)c1csc2ccccc12` [Compound 245, (S)-1-(benzo[b]thiophene-3-carbonyl)-N-((S)-1-(4-chlorophenyl)ethyl)-2-ethyl-N-(3-sulfamoylpropyl)azetidine-2-carboxamide], with 101 to 500 nM.
For the molecule `CC1(C(=O)N(CCCC(=O)O)Cc2ccc(Cl)cc2)CCN1C(=O)Cc1cccc2sccc12` (stereo not shown) [Compound 136, 4-[[1-(2-Benzo[b]thiophen-4-yl-acetyl)-2-methylazetidine-2-carbonyl]-(4-chloro-benzyl)-amino]-butyric acid], the half-inhibitory concentration (IC50) lay in the range of 101 to 500 nM.
`Cc1cc(C)cc(CC(=O)N2CCC2(C)C(=O)N(CC(=O)NS(=O)(=O)c2ccccc2)Cc2ccc(Cl)cc2)c1` (stereo not shown) [Compound 104, 1-[2-(3,5-Dimethyl-phenyl)-acetyl]-2-methyl-azetidine-2-carboxylic acid (2-benzenesulfonylamino-2-oxo-ethyl)-(4-chloro-benzyl)-amide]: the IC50 was in the range of 501 to 1000 nM.
As for `Cc1ccc(C)c(CC(=O)N2CCC2(C)C(=O)N(C)Cc2ccc(Cl)cc2)c1` (stereo not shown) [Compound 41, 1-[2-(2,5-Dimethyl-phenyl)-acetyl]-2-methyl-azetidine-2-carboxylic acid (4-chloro-benzyl)-methyl-amide], the IC50 was over 1000 nM.
Turning to `C=CCC1(C(=O)N(CCCC(=O)NS(C)(=O)=O)Cc2cccc(Cl)c2)CCN1C(=O)c1csc2ccccc12` (stereo not shown) [Compound 229, 2-allyl-1-(benzo[b]thiophene-3-carbonyl)-N-(3-chlorobenzyl)-N-(4-(methylsulfonamido)-4-oxobutyl)azetidine-2-carboxamide], the IC50 was in the range of 0.01 to 100 nM.
Next, `CCOc1cc(CCN(Cc2ccc(Cl)cc2)C(=O)C2(C)CCN2C(=O)Cc2cc(C)cc(C)c2)n[nH]1` (stereo not shown) [Compound 120, 1-[2-(3,5-Dimethyl-phenyl)-acetyl]-2-methyl-azetidine-2-carboxylic acid (4-chloro-benzyl)-[2-(5-ethoxy-1H-pyrazol-3-yl)-ethyl]-amide]: over 1000 nM.
Then `CC1(C(=O)N(CCCC(=O)NS(C)(=O)=O)Cc2ccc(Cl)cc2)CCN1C(=O)c1csc2ccccc12` (stereo not shown) [Compound 240, 1-(benzo[b]thiophene-3-carbonyl)-N-(4-chlorobenzyl)-2-methyl-N-(4-(methylsulfonamido)-4-oxobutyl)azetidine-2-carboxamide], with 101 to 500 nM; and `O=C(O)CCCN(Cc1cccc(Cl)c1)C(=O)C1(Cc2cccc(C(F)(F)F)c2)CCN1C(=O)c1csc2ccccc12` (stereo not shown) [Compound 222, 4-(1-(benzo[b]thiophene-3-carbonyl)-N-(3-chlorobenzyl)-2-(3-(trifluoromethyl)benzyl)azetidine-2-carboxamido)butanoic acid], with over 1000 nM; and `COc1cccc(OC(=O)N2CCC2(C)C(=O)N(CCCC(=O)O)Cc2ccc(Cl)cc2)c1` (stereo not shown) [Compound 218, 4-(N-(4-chlorobenzyl)-1-((3-methoxyphenoxy)carbonyl)-2-methylazetidine-2-carboxamido)butanoic acid], with 101 to 500 nM.
Then `CC1(C(=O)N(CCCC(=O)O)Cc2ccc3scnc3c2)CCN1C(=O)Cc1csc2ccccc12` (stereo not shown) [Compound 183, 4-{[1-(2-Benzo[b]thiophen-3-yl-acetyl)-2-methyl-azetidine-2-carbonyl]-benzothiazol-5-ylmethyl-amino}-butyric acid], with 0.01 to 100 nM.
Take `CC1(C(=O)N(CCCC(=O)N2CCOCC2)Cc2ccc(Cl)cc2)CCN1C(=O)c1csc2ccccc12` (stereo not shown) [Compound 139, 1-(benzo[b]thiophene-3-carbonyl)-N-(4-chlorobenzyl)-2-methyl-N-(4-morpholino-4-oxobutyl)azetidine-2-carboxamide]: the IC50 was over 1000 nM.
Next, `CC1(C(=O)N(CCCC(N)=O)Cc2ccc(Cl)cc2)CCN1C(=O)c1csc2ccccc12` (stereo not shown) [Compound 158, 1-(Benzo[b]thiophene-3-carbonyl)-2-methyl-azetidine-2-carboxylic acid (3-carbamoyl-propyl)-(4-chloro-benzyl)-amide]: 101 to 500 nM; `O=C(O)CCCN(Cc1cccc(Cl)c1)C(=O)C1(Cc2ccccc2)CCN1C(=O)c1csc2ccccc12` (stereo not shown) [Compound 199, 4-[[1-(Benzo[b]thiophene-3-carbonyl)-2-benzyl-azetidine-2-carbonyl]-(3-chloro-benzyl)-amino]-butyric acid]: 101 to 500 nM.
Next, `CC1(C(=O)N(CCCC(=O)O)Cc2ccc(Cl)cc2)CCN1C(=O)Oc1csc2ccccc12` (stereo not shown) [Compound 211, 4-(1-((benzo[b]thiophen-3-yloxy)carbonyl)-N-(4-chlorobenzyl)-2-methylazetidine-2-carboxamido)butanoic acid]: 0.01 to 100 nM; `Cc1cc(C)cc(OC(=O)N2CCC2(C)C(=O)N(CCCC(=O)O)Cc2ccc(Cl)cc2)c1` (stereo not shown) [Compound 196, 2-[(3-Carboxy-propyl)-(4-chloro-benzyl)-carbamoyl]-2-methyl-azetidine-1-carboxylic acid 3,5-dimethyl-phenyl ester]: 0.01 to 100 nM.
Regarding `CCOC(=O)CCCN(Cc1cccc(Cl)c1)C(=O)C1(C)CCN1C(=O)Cc1csc2ccccc12` (stereo not shown) [Compound 147, 4-[[1-(2-Benzo[b]thiophen-3-yl-acetyl)-2-methyl-azetidine-2-carbonyl]-(3-chloro-benzyl)-amino]-butyric acid ethyl ester], the 50% inhibitory concentration (IC50) was 501 to 1000 nM.
As for `Cc1cc(C)cc(N(C)C(=O)N2CCC2(C)C(=O)N(CCCC(=O)O)Cc2ccc(Cl)cc2)c1` (stereo not shown) [Compound 201, 4-((4-Chloro-benzyl)-{1-[(3,5-dimethyl-phenyl)-methyl-carbamoyl]-2-methyl-azetidine-2-carbonyl}-amino)-butyric acid], the IC50 was over 1000 nM.

The record behind these values is patent US8759334B2, “Compounds useful for the treatment of metabolic and inflammatory diseases” (Galapagos NV, priority 2011, dated 2014).
